Test results as given in patent US10058545B2, “Method of treating pulmonary arterial hypertension” (Cipla Limited, priority 2016, dated 2018).

What was measured:
[1] = system: pulmonary arterioles of rats with monocrotaline induced pulmonary arterial hypertension; assay: Monocrotaline rat PAH model: lung histopathology (smooth muscle hypertrophy, muscularization of pulmonary arterioles); type: in vivo, Sprague-Dawley rats; conditions: for mean hypertrophy score (smooth muscle hypertrophy of small arterioles): score 0 (normal) to 4 (marked), monocrotaline+vehicle 2.7
Experimental: (§1) Male Sprague-Dawley rats in groups 2 to 5 were administered […] of body weight of Monocrotaline in DMSO subcutaneously to induce PAH on day 1. The DMSO group (Group 1) received a single dose of DMSO subcutaneously on day 1. The vehicle group received 5 ml of vehicle every morning. The cinitapride as well as sildenafil groups were orally administered cinitapride (0.3 or 0.9 mg/kg total daily dose, divided into a BID regimen given every day for 28 days starting on Day 1), or sildenafil (30 mg/kg, administered twice daily). On the twenty-eighth day after monocrotaline dosing, the rats were anesthetized with ketamine/xylazine for terminal monitoring of pulmonary and systemic arterial pressures along with heart rate.
Later the animals were sacrificed and histopathological evaluation was performed to assess pulmonary arterioles for smooth muscle hypertrophy & muscularization of pulmonary arterioles.
The elastin/eosin stained lung section were examined microscopically and histopathological findings were recorded as smooth muscle hypertrophy of small arterioles and muscularization of pulmonary arterioles. The finding were recorded as 0 (normal), 1 (minimal), 2 (mild), 3 (moderate) or 4 (marked). Scoring smooth muscle hypertrophy in small pulmonary arterioles was based on the thickness of muscular wall & extent of finding (apparent no. of arterioles affected).

[2] = system: rats with monocrotaline induced pulmonary arterial hypertension; assay: Monocrotaline rat PAH efficacy model: terminal hemodynamics, heart/lung weights; conditions: for Body Weight / HR / HW/BW / Heart Weight / LV Weight / Lung Weight / MAP / Mean PAP / RV Weight / RV/BW / RV/LV + S (Fulton's Index) / Systolic PAP: Day 28 after MCT, Mean ± SEM
Experimental: The studies were conducted for hemodynamic evaluation of cinitpride in anesthetized sprague dawley rats treated with monocrotaline (“MCT”) to induce pulmonary arterial hypertension. Sildenafil was used as an internal control to compare the effects of cinitapride.
The effects of cinitapride were evaluated in rats with monocrotaline induced pulmonary arterial hypertension using sildenafil as standard care treatment. Male Sprague-Dawley rats were orally administered vehicle cinitapride (0.3 or 0.9 mg/kg total daily dose, divided into a BID regimen given every day for 28 days starting on Day 1), or sildenafil (30 mg/kg, administered twice daily) (n=10 in each group). Rats received a single injection of monocrotaline (60 mg/kg, s.c.) on Study Day 1. On the twenty-eighth day following monocrotaline dosing, the rats were anesthetized with ketamine/xylazine for terminal monitoring of pulmonary and systemic arterial pressures along with heart rate.
Vehicle (0.5% Methylcellulose+0.2% Tween 80 in deionized water, Cinitapride (0.3 or 0.9 mg/kg total daily dose; Sildenafil (30 mg/kg, administered twice daily)
as §1

[3] = Cinitapride 0.3 mg/kg per day bid, oral
[4] = Cinitapride 0.9 mg/kg per day bid, oral
[5] = Sildenafil 60 mg/kg per day bid, oral

SMILES: CCOc1cc(N)c([N+](=O)[O-])cc1C(=O)NC1CCN(CC2CC=CCC2)CC1 (centres unmarked) [Cinitapride]
- completely muscularized arterioles, group mean percentage ([1]; 0.45 mg/kg cinitapride twice daily following MCT, vehicle following MCT 52.1%): 38.2%
- vascular smooth muscle hypertrophy compared to control group (FIG. 4) ([1]; cinitapride 0.15 mg/kg after monocrotaline induction): mild vascular smooth muscle hypertrophy
- presence of smooth muscle hypertrophy in small arterioles ([1]; cinitapride 0.15 mg/kg and 0.45 mg/kg twice daily following Monocrotaline): substantially decreased
- vascular smooth muscle hypertrophy compared to control group (FIG. 5) ([1]; cinitapride 0.45 mg/kg after monocrotaline induction): mild vascular smooth muscle hypertrophy
- mean hypertrophy score (smooth muscle hypertrophy of small arterioles) ([1]; monocrotaline+cinitapride 0.15 bid): 1.9
- mean hypertrophy score (smooth muscle hypertrophy of small arterioles) ([1]; monocrotaline+cinitapride 0.45 bid): 2.1
- systolic pulmonary arterial pressure compared to the vehicle group ([2]; 0.9 mg/kg/day cinitapride, after 28 days): reduction in systolic pulmonary arterial pressure
- Body Weight [2, 3]: 0.32 ± 0.02 kg
- HR [2, 3]: 299 ± 17 bpm
- HW/BW [2, 3]: 3.71 ± 0.20
- Heart Weight [2, 3]: 1.17 ± 0.05 g
- LV Weight [2, 3]: 0.68 ± 0.04 g
- Lung Weight [2, 3]: 2.36 ± 0.16 g
- MAP [2, 3]: 77 ± 8 mmHg
- Mean PAP [2, 3]: 43 ± 5 mmHg
- RV Weight [2, 3]: 0.35 ± 0.02 g
- RV/BW [2, 3]: 1.14 ± 0.10
- RV/LV + S (Fulton's Index) [2, 3]: 0.53 ± 0.04
- Systolic PAP [2, 3]: 55 ± 8 mmHg
- Body Weight [2, 4]: 0.32 ± 0.02 kg
- HR [2, 4]: 295 ± 9 bpm
- HW/BW [2, 4]: 3.52 ± 0.16
- Heart Weight [2, 4]: 1.10 ± 0.05 g
- LV Weight [2, 4]: 0.70 ± 0.03 g
- Lung Weight [2, 4]: 2.30 ± 0.20 g
- MAP [2, 4]: 76 ± 2 mmHg
- Mean PAP [2, 4]: 37 ± 3 mmHg
- RV Weight [2, 4]: 0.31 ± 0.03 g
- RV/BW [2, 4]: 1.01 ± 0.11
- RV/LV + S (Fulton's Index) [2, 4]: 0.45 ± 0.04
- Systolic PAP [2, 4]: 45 ± 4 mmHg
- effect on right ventricular hypertrophy (RV/LV+S, Fulton's Index) compared to vehicle ([2]; cinitapride 0.3 mg/kg/day): −10%
- effect on right ventricular hypertrophy (RV/LV+S, Fulton's Index) compared to vehicle ([2]; cinitapride 0.9 mg/kg/day): −25%
- efficacy at reducing monocrotaline-induced pulmonary hypertension (overall mortality, pulmonary hemodynamics, right ventricular hypertrophy) versus sildenafil ([2]; cinitapride 0.9 mg/kg/day given BID, oral): superior to the positive control
- decrease in hypertrophy, RV (wt) corrected by body weight ([2]; cinitapride highest dose, p<0.05): 33%
- activity in controlling or reducing PAH relative to Sildenafil ([2]; rat, in vivo): comparable
- heart rate or mean arterial pressure compared to vehicle ([2]; rats treated with cinitapride): No substantive differences

SMILES: CCCc1nn(C)c2c(=O)[nH]c(-c3cc(S(=O)(=O)N4CCN(C)CC4)ccc3OCC)nc12 [Sildenafil]
- Body Weight [2, 5]: 0.32 ± 0.01 kg
- HR [2, 5]: 278 ± 21 bpm
- HW/BW [2, 5]: 3.89 ± 0.17
- Heart Weight [2, 5]: 1.24 ± 0.02 g
- LV Weight [2, 5]: 0.74 ± 0.02 g
- Lung Weight [2, 5]: 2.36 ± 0.13 g
- MAP [2, 5]: 69 ± 5 mmHg
- Mean PAP [2, 5]: 38 ± 6 mmHg
- RV Weight [2, 5]: 0.38 ± 0.02 g
- RV/BW [2, 5]: 1.19 ± 0.09
- RV/LV + S (Fulton's Index) [2, 5]: 0.51 ± 0.03
- Systolic PAP [2, 5]: 46 ± 7 mmHg
- hypertrophic index (RV wt corrected by body weight) ([2]; sildenafil): decrease
